The term solubility denotes the dissolved amount per volume that the medium holds.

A short description of the data set: solubility of beta-carotene in potential solvents. Format: physicochemical. Conditions: for solubility: organic solvent or mixture. The source says:
The present invention is based, at least in part, on the discovery that one or more solvents such as tetrahydrofuran (THF), can be employed to form an improved cochleate with fragile nutrients such as beta-carotene at desirable concentrations. Suitable solvents and solvent mixtures that can be employed in connection with the present invention and can readily be identified by a person of skill in the art employing the teachings provided herein and knowledge in the art. For example, beta-carotene was added to a variety of potential solvents, and was found not soluble in either water or DMSO, and slightly soluble in methyl pyrrolidone (less than 1 mg/ml). Heptane also was considered, but heptane is not miscible with water and thus cannot readily be employed in the formation of cochleates. […] Similarly, solvents can be identified for other fragile nutrients and lipids in accordance with the present invention.

Values after ≈ are worked out from the molar mass of the structure shown. Like-named read-outs stand apart in the source and are kept apart here.

Take `CC1=C(/C=C/C(C)=C/C=C/C(C)=C/C=C/C=C(C)/C=C/C=C(C)/C=C/C2=C(C)CCCC2(C)C)C(C)(C)CCC1` [beta-carotene]: the solubility was under 1000 µg/mL (solvent methyl pyrrolidone, slightly soluble, read-out: solubility in methyl pyrrolidone) and 10000 µg/mL (≈ 18.6 mM) (solvent tetrahydrofuran (THF), read-out: solubility in THF). For the same molecule, the “solubility in DMSO” value (solvent DMSO) is “not soluble”. Besides, the solubility in water result (solvent water) is “not soluble”.

The values above are taken from patent US20050008686A1, “Cochleate preparations of fragile nutrients” (priority 2003, published 2005).
